Laboratory results: patent US5182280A, “Derivatives of benzimidazole and their use as antihistamines” (Laboratorios Del Dr. Esteve, S. A., priority 1990, dated 1993)

Assays:
[1] = system: death induced by compound 48/80; assay: "In vivo" antihistaminic activity: protection from death induced by 48/80 in the rat; settings: ip, i.p. 60 min before 48/80 (0.5 mg/kg, i.v.), survival 4 h after, read-out: ED-50, protection from death induced by 48/80
Procedure: The antihistaminic activity was studied by determining the protection in the face of the mortality induced by the product 48/80 in the rat. This test was realized in accordance with the technique described by C. J. E. Niemegeers and cols. (Arch, int. Pharmacodyn. 234, 164-176 (1978).
The products according to the present invention are administered i.p. to rats. After 60 minutes the compound 48/80 is administered (0.5 mg/kg, i.v.). The protective activity is defined as the survival of the rats 4 hours after the i.v. injection of 48/80.
The activity of the products at several doses in order to determine the dose capable of protecting 50% of the animals (ED-50) was studied.

[2] = Sedative effect: Irwin test (passivity and ataxia); format: in vivo; settings: rats, i.p., 1, 2 and 3 hours after treatment
Procedure: Pas.: Passivity, sedation, prostration. Quantitative evaluation between 0 and 3. They were performed 1, 2 and 3 hours after the treatment.
Atax.: Ataxia, the alterations in coordination in locomotion were evaluated. They were evaluated between 0 and 3. They were performed 1, 2 and 3 hours after the treatment.

[3] = system: sleep time induced by pentobarbital; assay: Sedative effect: potentiation of the sleep time induced by pentobarbital; settings: for Potentiation of sleep time (in words): orally; for Potentiation of sleep time: 1 h before sodium pentobarbital (35 mg/kg, s.c.)
Procedure: Study of the potentiation of the sleep time due to pentobarbital was carried out by following the method described by L. E. Allen and cols. […] The products studied were administered orally. […] The sleep time was compared with a group of control animals, treated only with sodium pentobarbital.

Row | Compound | ED50 [1] | Atax. (ataxia; score 0 to 3) ([2]; 80 mg/kg) | Pas. (passivity, sedation, prostration; score 0 to 3) ([2]; 80 mg/kg) | also measured
1 | CN(C)CCOC(c1ccccc1)c1ccccc1 [Difenhidramine, reference compound] | 0.84 mg/kg |  |  | Atax. (ataxia; score 0 to 3) ([2]; 40 mg/kg): 0.9; Pas. (passivity, sedation, prostration; score 0 to 3) ([2]; 40 mg/kg): 0; Potentiation of sleep time (in words) ([3]; 20 mg/kg): potentiates significantly the sleep time
2 | CCOCCn1c(CN2CCN(CCCCn3cc(Br)cn3)CC2)nc2ccccc21 [Example 1, 1-(2-Ethoxyethyl)-2-4-[4--(4-bromopyrazol-1-yl)butyl]piperazin-1-ylmethyl benzimidazole] | 0.09 mg/kg | 1.3 | 1.4 | 
3 | CCOCCn1c(N2CCN(CCCCn3cc(Br)cn3)CC2)nc2ccccc21 [Example 2, 1-(2-Ethoxyethyl)-2-4-[4-(4-bromopyrazol1yl)butyl]piperazinyl benzimidazole] | 2.7 mg/kg | 1.3 | 0.7 | Atax. (ataxia; score 0 to 3) ([2]; 40 mg/kg): 0.4; Pas. (passivity, sedation, prostration; score 0 to 3) ([2]; 40 mg/kg): 0
4 | CCOCCn1c(CN2CCN(CCCCn3ccnc3)CC2)nc2ccccc21 [Example 3, 1-(2-Ethoxyethyl)-2-4-[4-(imidazol-1-yl)butyl]piperazin-1-ylmethyl benzimidazole] | 0.13 mg/kg | 0 | 0 | 
5 | CCOCCn1c(CN2CCN(CCCCn3cncn3)CC2)nc2ccccc21 [Example 4, 1-(2-Ethoxyethyl)-2-4-[4-(1,2,4-triazol-1-yl)butyl]piperazin-1-ylmethyl benzimidazole] | 0.036 mg/kg | 0.5 | 0.4 | 
6 | CCOCCn1c(CN2CCN(CCCCn3cc(S(=O)(=O)O)cn3)CC2)nc2ccccc21 [Example 5, 1-(2-Ethoxyethyl)-2-4-[4-(4-sulfopyrazol-1-yl)butyl]piperazin-1-ylmethyl benzimidazole] | 2.6 mg/kg | 0.4 | 0.4 | 
7 | CCOCCn1c(CN2CCN(CCCCn3cc(C(=O)O)cn3)CC2)nc2ccccc21 [Example 6, 1-(2-Ethoxyethyl)-2-4-[4-(4-carboxypyrazol-1-yl)butyl]piperazin-1-ylmethylbenzimidazole] | 0.064 mg/kg | 0 | 0 | 
8 | CCOCCn1c(CN2CCN(CCCCn3cccn3)CC2)nc2ccccc21 [Example 7, 1-(2-Ethoxyethyl)-2-4-[4-(pyrazol-1-yl)butyl]piperazin-1-ylmethyl benzimidazole] | 0.02 mg/kg | 0 | 0 | Atax. (ataxia; score 0 to 3) ([2]; 160 mg/kg): 0.3; Pas. (passivity, sedation, prostration; score 0 to 3) ([2]; 160 mg/kg): 0; Potentiation of sleep time ([3]; 80 mg/kg orally): 10%; Potentiation of sleep time ([3]; 160 mg/kg orally): 11%; Potentiation of sleep time ([3]; 320 mg/kg orally): 22%; Potentiation of sleep time (in words) ([3]; 320 mg/kg, maximum dose tested): does not potentiate the sleep time
9 | CCOCCn1c(CN2CCN(CCCCn3cccc3)CC2)nc2ccccc21 [Example 8, 1-(2-Ethoxyethyl)-2-4-[4-(pyrrol-1-yl)butyl]piperazin-1-yl-methyl benzimidazole] | 0.02 mg/kg | 0 | 0 | 
10 | CCOCCn1c(N2CCN(CCCCn3cc(C(=O)O)cn3)CC2)nc2ccccc21 [Example 9, 1-(2-Ethoxyethyl)-2-4-[4-(4-carboxypryazol-1-yl)butyl]piperazine-1-yl benzimidazole] | 0.84 mg/kg | 0 | 0 | 
11 | CCOCCn1c(CN2CCN(CCCCn3cnc(Cl)c3Cl)CC2)nc2ccccc21 [Example 10] | 0.66 mg/kg |  |  | 
